Test results: US20260207564A1, “DOSAGE REGIME OF ORFORGLIPRON FOR TREATING A SUBJECT WITH TYPE 2 DIABETES (T2D), OBESITY, OR OVERWEIGHT WITH AT LEAST ONE WEIGHT RELATED COMORBIDITY” (Eli Lilly and Company, priority 2022, published 2026)

Assays:
[1] = Phase 1 studies of clinical pharmacology, PK and PD in healthy volunteers and in participants with T2D; type: in vivo, human
Source text: The clinical pharmacology, PK, and PD of Compound 1a were studied in 2 completed Phase 1 studies in healthy volunteers and in participants with T2D).

[2] = Phase 2 study in obesity or overweight with at least one weight related comorbidity, 36 weeks (Example 4A); type: in vivo, human
Source text: The primary endpoint was the percentage change in body weight from baseline to week 26, with a secondary 36-week endpoint.
A 36-week Phase 2, multicenter, randomized, double-blind, parallel, placebo-controlled study was designed to examine the efficacy and safety of 4 dose levels of once daily administered Compound 1a, compared with once daily administered placebo in participants with obesity or overweight with at least one weight related comorbidity. A total of 272 patients were randomized 5:5:5:3:3:3:3 to once daily placebo or Compound 1a maintenance doses of 12 mg, 24 mg, 36 mg (36-1, 36-2) or 45 mg (45-1, 45-2) treatment groups. The 36 and 45 mg cohorts were subdivided in a 36 mg-1 and 36 mg-2 as well as 45 mg-1 and 45 mg-2 respectively, as different starting doses, dose escalations and dose escalation steps were investigated in these subgroup cohorts (FIG. 2). The different dose escalations were performed to assess the maintenance dose and titration steps for future trials.
Eligible male or female participants were >18 years of age with a HbA1c<6.5% (48 mmol/mol) and a BMI of ≥30 kg/m2 or ≥27 kg/m2 and <30 kg/m2 with at least 1 of the following weight-related comorbidities: hypertension, dyslipidemia, cardiovascular disease, or obstructive sleep apnea.
The study period included a 2-week screening/lead in period, a 36-week treatment period followed by a 2 week off-drug safety follow-up period. During the treatment period, doses were escalated for all treatment groups. The dose escalation period ranged from 0 to 16 weeks depending on dose group. The initial dose was 2 or 3 mg followed by additional escalation steps depending on assigned cohort (FIG. 2). Compound 1a or matching placebo was administered daily by oral capsule. All participants were provided healthy eating and exercise education by study personnel throughout the trial.
The primary endpoint was percent change in body weight from baseline at week 26. Secondary endpoints included percent change in body weight from baseline at week 36, change from baseline in body weight (kg), BMI (kg/m2) and waist circumference (cm), and percentage of study participants who achieved ≥5% body weight (kg) reduction, and ≥10% body weight (kg) reduction, at week 26 and week 36. Key safety endpoints included adverse events, blood pressure, heart rate, safety laboratory measures, PK parameters, and patient-reported outcomes.
A sample size of 270 participants was calculated to provide at least 90% power for testing superiority of Compound 1 versus placebo in the primary endpoint. The estimand used for efficacy analyses was an “efficacy estimand”, representing the average treatment effect for the randomized population if the treatment was administered as intended, thus including data from all randomized participants who received at least one dose of study drug and excluding data after permanent discontinuation of study drug. All tests of treatment effects were conducted at a 2-sided alpha level of 0.05 without adjustment for multiple comparisons, and 2-sided 95% CIs were calculated. To test efficacy of Compound 1a with adequate statistical power, for 36 mg and 45 mg the evaluation of the primary endpoint was made by pooling 2 dose escalation regimens (combining 36 mg-1 and 36 mg-2, for 36 mg, and combining 45 mg-1 and 45 mg-2, for 45 mg).
(§1) Safety analyses were conducted by comparing safety of Compound 1a with placebo irrespective of adherence to study drug. The safety analyses were conducted using the safety analysis set, which includes all randomized participants who received at least one dose of study drug. The results were presented in summary statistics, point estimates, and 95% confidence intervals along with p-values for treatment comparisons.

[3] = type: in vivo, human; conditions: 26 weeks, 3 mg to 45 mg QD
Procedure: Two Phase 2 studies have evaluated the safety and efficacy of Compound 1a for the treatment of T2D and another for treatment of obesity or overweight with at least one weight related comorbidity.
The 36 and 45 mg cohorts were subdivided in a 36 mg-1 and 36 mg-2 as well as 45 mg-1 and 45 mg-2 respectively, as different starting doses, dose escalations and dose escalation steps were investigated in these subgroup cohorts (FIG. 4).
Eligible male or female participants were >18 years of age with T2D with a HbA1c 7.0% to 10.5% and a body mass index (BMI) of ≥23 kg/m2, treated with diet and exercise alone or with a stable dose of metformin and with a stable body weight (≤5% body weight gain and/or loss) for at least 3 months prior to screening/Visit 1.
The study period included a 2-week screening/lead in period and a 26-week treatment period. During the treatment period, doses were escalated for all treatment groups. The dose escalation period ranged from 4 to 12 weeks depending on dose group. The initial dose was 2 or 3 mg followed by additional escalation steps depending on assigned cohort (FIG. 4). […] All participants were provided healthy eating and exercise education by study personnel throughout the trial.
Key Safety and tolerability endpoints included the frequency of patient- and investigator-reported adverse events, rate and incidence of hypoglycaemia events (glucose <70 mg/dL [3.9 mmol/L] and ≥54 mg/dL [3.0 mmol/L], or glucose <54 mg/dL [3.0 mmol/L]), and change in safety laboratory parameters, electrocardiogram, and vital signs.
The estimand used for efficacy analyses was an “efficacy estimand”, representing the average treatment effect for the randomized population if the treatment was administered as intended, thus including data from all randomized participants who received at least one dose of study drug and excluding data after permanent discontinuation of study drug. All tests of treatment effects were conducted at a 2-sided alpha level of 0.05 without adjustment for multiple comparisons, and 2-sided 95% CIs were calculated.
as §1, with “OFG” for “Compound 1a”, “placebo and with dulaglutide” for “placebo”

[4] = after 12 weeks of treatment, 9 mg QD to 45 mg QD, people with T2D

## Cc1cc(-n2nc3c(c2-n2ccn(-c4ccc5c(cnn5C)c4F)c2=O)[C@H](C)N(C(=O)c2cc4cc([C@H]5CCOC(C)(C)C5)ccc4n2[C@@]2(c4noc(=O)[nH]4)C[C@@H]2C)CC3)cc(C)c1F [Compound 1a, 3-[(1S,2S)-1-[5-[(4S)-2,2-dimethyloxan-4-yl]-2-[(4S)-2-(4-fluoro-3,5-dimethylphenyl)-3-[3-(4-fluoro-1-methylindazol-5-yl)-2-oxoimidazol-1-yl]-4-methyl-6,7-dihydro-4H-pyrazolo[4,3-c]pyridine-5-carbonyl]indol-1-yl]-2-methylcyclopropyl]-4H-1,2,4-oxadiazol-5-one]
[1]; 9 mg QD to 45 mg QD dose range
  PK of Compound 1a plasma concentration increase with dose: approximately proportional to the increase of dose
[1]; Phase 1 studies
  PK profile: appropriate for once daily oral dosing
  most reported AEs: nausea, vomiting, and constipation
[1]; [4]
  improvements in HbA1c: up to −1.4%
  weight loss: up to −5.8 kg
[2]; 36 weeks, 45 mg
  percentage of patients who had weight reduction of 15% or more: 48%
[2]; 36 weeks, across dose groups
  percentage of patients who had weight reduction of 10% or more: 47% to 75
[2]; across dose groups
  percentage of patients who reported AEs: 86% to 90.2
[2]; baseline to week 26, across dose groups
  mean reduction in systolic blood pressure (SBP): −4.8 to −10.5 mmHg
[2]; baseline to week 36, across dose groups
  mean reduction in systolic blood pressure (SBP): −6.7 to −10.5 mmHg
[2]; dose escalated every 3 weeks compared to every 1-2 weeks
  tolerability by escalation interval: superior tolerability
[2]; in vivo
  Liver function tests compared with placebo: not significantly increased
  Most common TEAEs: GI related (nausea, vomiting, diarrhea and constipation)
  diastolic blood pressure (DBP) compared to placebo: No differences were noted
  health-related quality of life and physical activity readouts versus placebo: greater improvements
  most common adverse events: gastrointestinal, mild to moderate in severity
  most common events reported: Nausea, constipation, vomiting, diarrhea, and eructation
  prespecified weight and cardiometabolic measures: improvements in all prespecified weight and cardiometabolic measures
[2]; primary 26-week endpoint
  mean percent weight loss compared to placebo: 11%
  mean percent weight loss from baseline: up to 13%
[2]; starting dose of 3 mg versus 2 mg starting dose
  GI AE events by starting dose: higher GI AE events
[2]; week 26, across dose groups 12-45 mg
  mean percentage change in body weight from baseline: −8.6% to −12.6
[2]; week 36
  HDL cholesterol versus placebo: no significant change
  changes in the fasting lipids (triglycerides, total cholesterol, non-HDL cholesterol, LDL and VLDL): Benefits with Compound 1a were noted
[2]; week 36, across dose groups 12-45 mg
  mean percentage change in body weight from baseline: −9.4% to −14.7
[3]
  HbA1c treatment difference vs placebo: −1.7%
  mean changes from baseline in HbA1c: up to −2.1%
  mean weight loss: up to 10 kg
  weight loss treatment difference vs placebo: 8 kg
